In patent US12077503B2, “Substituted cyclic amides and their use as herbicides” (FMC CORPORATION, priority 2015, dated 2024):

How the values were obtained:
Assay type in all cases: in vivo
[1] = test system: barnyardgrass (Echinochloa crus-galli); assay: Test A preemergence; conditions: Echinochloa crus-galli, pre-emergence, 240 h, preemergence, read-out: Barnyardgrass plant response rating
Method in brief: (§1)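 Greenhouse, ~10 d after spray; visual injury vs untreated controls, 0 = no effect, 100 = complete control. Preemergence: directed soil spray over planted seeds. Postemergence: plants 2–10 cm, 1–2 leaf stage. Loam/sand blend. Compound in non-phytotoxic solvent with surfactant.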

[2] = test system: ragweed (common ragweed, Ambrosia elatior); assay: Test A preemergence; conditions: Ambrosia artemisiifolia, pre-emergence, 240 h, preemergence, 0 to 100 scale where 0 is no effect and 100 is complete control, read-out: Ragweed plant response rating
Method in brief: as §1

[3] = test system: ryegrass, Italian (Italian ryegrass, Lolium multiflorum); assay: Test A preemergence; conditions: Lolium multiflorum, pre-emergence, 240 h, preemergence, 0 to 100 scale where 0 is no effect and 100 is complete control, read-out: Ryegrass, Italian plant response rating
Method in brief: as §1

[4] = test system: pigweed (Amaranthus retroflexus); assay: Test A preemergence; conditions: Amaranthus retroflexus, pre-emergence, 240 h, preemergence, 0 to 100 scale where 0 is no effect and 100 is complete control, read-out: Pigweed plant response rating
[5] = test system: giant foxtail (Setaria faberii); assay: Test A preemergence; conditions: Setaria faberi, pre-emergence, 240 h, preemergence, 0 to 100 scale where 0 is no effect and 100 is complete control, read-out: Foxtail, Giant plant response rating
Method in brief: as §1

Kochia (Kochia scoparia) = assay: Test A preemergence; conditions: Bassia scoparia, pre-emergence, 240 h, preemergence, 0 to 100 scale where 0 is no effect and 100 is complete control, read-out: Kochia plant response rating
Method in brief: as §1

corn (Zea mays) = assay: Test A postemergence; conditions: Zea mays, post-emergence, 240 h, postemergence, read-out: Corn plant response rating
Method in brief: as §1

[6] = test system: barnyardgrass (Echinochloa crus-galli); assay: Test A postemergence; conditions: Echinochloa crus-galli, post-emergence, 240 h, postemergence, read-out: Barnyardgrass plant response rating
Method in brief: as §1

[7] = test system: ragweed (common ragweed, Ambrosia elatior); assay: Test A postemergence; conditions: Ambrosia artemisiifolia, post-emergence, 240 h, postemergence, read-out: Ragweed plant response rating
Method in brief: as §1

[8] = test system: ryegrass, Italian (Italian ryegrass, Lolium multiflorum); assay: Test A postemergence; conditions: Lolium multiflorum, post-emergence, 240 h, postemergence, read-out: Ryegrass, Italian plant response rating
Method in brief: as §1

[9] = test system: pigweed (Amaranthus retroflexus); assay: Test A postemergence; conditions: Amaranthus retroflexus, post-emergence, 240 h, postemergence, read-out: Pigweed plant response rating
Method in brief: as §1

[10] = test system: blackgrass (Alopecurus myosuroides); assay: Test A postemergence; conditions: Alopecurus myosuroides, post-emergence, 240 h, postemergence, read-out: Blackgrass plant response rating
Method in brief: as §1

[11] = test system: wheat (Triticum aestivum); assay: Test A postemergence; conditions: Triticum aestivum, post-emergence, 240 h, postemergence, read-out: Wheat plant response rating
Method in brief: as §1

[12] = test system: giant foxtail (Setaria faberii); assay: Test A postemergence; conditions: Setaria faberi, post-emergence, 240 h, postemergence, read-out: Foxtail, Giant plant response rating
Method in brief: as §1

[13] = test system: Galium (catchweed bedstraw, Galium aparine); assay: Test A postemergence; conditions: Galium, post-emergence, 240 h, postemergence, read-out: Galium plant response rating
Method in brief: as §1

[14] = 125 g ai/ha, visual injury on 0 to 100 scale (0 no effect, 100 complete control), approx. 10 d
[15] = 500 g ai/ha, 0 to 100 scale, 0 is no effect, 100 is complete control

O=C1NC[C@H](c2cc(C(F)F)cs2)[C@H]1C(=O)Nc1cccc(F)c1F [Compound 1117]
50%: pest or weed control at 125 g/ha ([5]; 125 g ai/ha, approx. 10 d)
30%: pest or weed control at 500 g/ha [7, 15]
0%: pest or weed control at 125 g/ha ([3]; 125 g ai/ha, approx. 10 d) | pest or weed control at 125 g/ha ([4]; 125 g ai/ha, approx. 10 d) | pest or weed control at 500 g/ha ([4]; 500 g ai/ha) | pest or weed control at 125 g/ha [7, 14] | pest or weed control at 125 g/ha [8, 14] | pest or weed control at 125 g/ha [9, 14] | pest or weed control at 500 g/ha [9, 15] | pest or weed control at 125 g/ha [10, 14] | plant injury at 125 g/ha [11, 14]
40%: pest or weed control at 125 g/ha (Kochia (Kochia scoparia); 125 g ai/ha, approx. 10 d) | plant injury at 500 g/ha (corn (Zea mays); [15]) | pest or weed control at 500 g/ha [8, 15] | pest or weed control at 500 g/ha [10, 15] | pest or weed control at 125 g/ha [13, 14] | pest or weed control at 500 g/ha [13, 15]
20%: pest or weed control at 125 g/ha ([2]; 125 g ai/ha, approx. 10 d) | plant injury at 125 g/ha (corn (Zea mays); [14]) | pest or weed control at 125 g/ha [12, 14]
70%: pest or weed control at 500 g/ha ([2]; 500 g ai/ha) | pest or weed control at 500 g/ha (Kochia (Kochia scoparia); 500 g ai/ha) | plant injury at 500 g/ha [11, 15] | pest or weed control at 500 g/ha [12, 15]
60%: pest or weed control at 500 g/ha ([3]; 500 g ai/ha)
80%: pest or weed control at 125 g/ha [6, 14]
90%: pest or weed control at 125 g/ha ([1]; 125 g ai/ha, 0 to 100 scale where 0 is no effect and 100 is complete control, approx. 10 d) | pest or weed control at 500 g/ha ([1]; 500 g ai/ha, visual injury rating about 10 d after treatment, 0 to 100 scale (0 no effect, 100 complete control)) | pest or weed control at 500 g/ha ([5]; 500 g ai/ha) | pest or weed control at 500 g/ha [6, 15]
